Source: patent US20260069606A1, “Oxidative Stress and Diabetes Treatment with Cobinamide” (The Regents of the University of California, priority 2022, published 2026)

What was measured:
[1] = mouse, in vivo
Method: It seemed possible, therefore, that the cobinamide administered to the mice could have increased their blood pressure, since ·NO is a potent vasodilator. Because diabetes can increase blood pressure, these studies were performed on a parallel set of non-diabetic mice of the same strain and sex and using the same concentration of histidyl-cobinamide in the drinking water as in the above-described studies.

[2] = test system: H9c2 rat embryonal cardiomyocytes; assay: Mitochondrial superoxide content, MitoSOX Red fluorescence; type: cell-based; details: H9c2, 5 μM rotenone 30 min, drugs at 2.5 μM
Method: (§1) FIGS. 3A-3H. […] FIGS. 3A-3B. […] FIG. 3A. […] FIG. 3B. […] FIGS. 3C-3D. […] FIG. 3D. […] FIGS. 3E-3F. […] FIG. 3E. Representative blots are shown. […] FIG. 3F. […] FIG. 3G. […] FIG. 3H.
H9c2 cells were plated on glass cover slips in 24 well dishes, and 16 h later the medium was changed to phenol red-free DMEM supplemented with 20 mM Hepes, 0.1% fetal bovine serum, and 0.5% bovine serum albumin. […] MitoSOX Red is a dihydroethidium derivative containing triphenyl-phosphonium, which localizes it to respiring mitochondria. Its reaction with O2·^− yields 2-hydroxy-mitoethidium (2-OH-Mito-E″), whereas its reaction with other oxidative species yields mitoethidium (Mito-E^+)^67. These two oxidative derivatives have overlapping fluorescence spectra, but they can be distinguished by high performance liquid chromatography (HPLC)^68. Rotenone increased 2-OH-Mito-E^+ about two-fold, without increasing Mito-E^+. Thus, any increased fluorescence observed on treating cells with rotenone could be ascribed to an increase in 2-OH-Mito-E^+, and decreased fluorescence by an anti-oxidant in rotenone-treated cells was likely from a decrease in 2-OH-Mito-E^+.
(§2) The cells were then washed once with PBS, placed back in the DMEM experimental medium, and incubated with the indicated drugs for 30 min. At the end of the incubation period, nuclei of both the MitoSOX Red- and JC-1-treated cells were stained with […] 4′,6-diamidino-2-phenyl-indole (DAPI) for 3 min, washed once with PBS, and returned to the DMEM experimental medium. The cover slips were removed from the wells, mounted in the DMEM experimental medium, and red (MitoSOX Red and JC-1 aggregates), green (JC-1 monomers), and blue (DAPI) fluorescence intensity was assessed using a Keyence BZ-X700 fluorescence microscope at the following paired excitation/emission wavelengths, respectively: 560/630, 490/525, and 360/460 nm.
To assess if cobinamide reduces oxidative stress in cells and to compare its […] efficacy to that of cobalamin, imisopasem, and MnTBAP, several sets of experiments were performed. First, whether cobinamide reduces mitochondrial-generated O2·^− was evaluated using the fluorescent probe MitoSOX Red. H9c2 rat embryonal cardiomyocytes were treated with rotenone, an inhibitor of complex I, to increase mitochondrial O2·^−. […] Monitoring the UV-visible spectrum of cobinamide is a sensitive means to assess ligand binding^38.

H9c2 cells = assay: Mitochondrial membrane potential, JC-1 red to green fluorescence; type: cell-based, rat; details: H9c2, 5 μM rotenone 30 min, drugs at 2.5 μM
Method: as §1, §2
Increased mitochondrial O2·^− by rotenone would be expected to reduce the mitochondrial membrane potential (ΔΨm), due in part to activation of uncoupling proteins^39. […] Rotenone caused an almost complete loss of red fluorescence and a striking increase in green fluorescence in the cells, indicating a marked decrease in ΔΨm (FIGS. 3C-3D).

[3] = test system: Jun N-terminal kinase (JNK) phosphorylation in H9c2 cells; assay: H2O2-induced JNK phosphorylation, immunoblotting; type: cell-based, rat; details: H9c2, 100 μM H2O2 30 min, drugs at 100 μM
Description: as §1

COS-7 cells = details: COS-7, 1 mM paraquat 3 h, 100 μM drug, counted 48 h later
Method: as §1
Finally, whether cobinamide could alleviate the effects of oxidative stress induced by yet another mechanism in a different cell type was tested using paraquat-treated COS-7 cells. Paraquat generates O2·^− through a redox cycling mechanism and increases both intracellular O2·^− and H2O2^42.

D. melanogaster = assay: Survival of fruit flies during paraquat poisoning; type: in vivo; details: 20 mM paraquat with 0.8 mM drug in food, over 7 d
Method: The number of live flies was counted each day for 7 d. The experiment was repeated seven times, for a total of 70 flies per condition. The percent surviving flies was calculated; error bars represent standard deviations and are shown in one direction only for sake of clarity. […] Chi, cobinamide in Panel A and histidyl-cobinamide in Panels B-K; Imp, imisopasem; MnTP, MnTBAP; CbL, cobalamin; DNPH, 2,4-dinitrophenylhydrazine; ND, non-diabetic; D, diabetic; Veh, vehicle.
To test cobinamide in a whole animal, D. melanogaster was selected for initial studies, and oxidative stressed was increased in the files by administering paraquat in their food. Cobinamide was again compared to imisopasem, MnTBAP, and hydroxocobalamin, all administered in food.

[4] = second order; literature values; cited from earlier work
[5] = literature values; not strictly comparable with third-order constants; cited from earlier work
[6] = second order; literature values; cited from earlier work; remark: listed apart in the source
[7] = literature values, cited from earlier work

Question: For histidyl-cobinamide, which Blood pressure [1] is on record?
Answer: No difference in the blood pressure

Question: With [Cl-].[Cl-].[Mn+2].c1cc2nc(c1)CN[C@@H]1CCCC[C@H]1NCCN[C@@H]1CCCC[C@H]1NC2 [Imisopasem, imisopasem manganese] as the compound, how does the “MitoSOX red fluorescence in rotenone-treated cells” value [2] read?
Answer: reduced the fluorescent signal substantially

Question: What about the “JC-1 red to green fluorescence ratio (ΔΨm) in rotenone-treated cells” value (H9c2 cells) of the same compound?
Answer: modest degrees of recovery

Question: What about the “JNK phosphorylation in H2O2-treated cells” value [3] of the same compound?
Answer: small non-significant effects

Question: And the “Effect on cell growth of paraquat-treated cells” value (COS-7 cells)?
Answer: neither imisopasem nor MnTBAP had an effect

Question: And the “Effect on mortality of paraquat-exposed flies” value (D. melanogaster)?
Answer: no significant effect

Question: What about the “Rate constant, reaction with superoxide (O2·^−), published” value [4] of the same compound?
Answer: 1.6e+07 M⁻¹ s⁻¹

Question: And the “Rate constant, reaction with hydrogen peroxide (H2O2), published” value [5]?
Answer: 8.2

Question: And the “Rate constant, reaction with peroxynitrite (ONOO^−), published” value [6]?
Answer: No activity (26)

Question: And the “Rate constant, reaction with nitric oxide (·NO), published” value ([7]; second order)?
Answer: No activity (26)

Question: With C/C1=C2/[N-][C@H]([C@H](CC(N)=O)[C@@]2(C)CCC(=O)NC[C@H](C)OP(=O)([O-])O[C@H]2[C@@H](O)[C@@H](n3cnc4cc(C)c(C)cc43)O[C@@H]2CO)[C@]2(C)N=C(/C(C)=C3N=C(/C=C4N=C1[C@@H](CCC(N)=O)C\4(C)C)[C@@H](CCC(N)=O)[C@]\3(C)CC(N)=O)[C@@H](CCC(N)=O)[C@]2(C)CC(N)=O.[Co+2] (stereo in doubt) [Cobalamin(II)] as the compound, how does the “Oxidation in the presence of oxygen” value read?
Answer: rapidly oxidized back to cobalamin(III)

Question: What about the “Rate constant, reaction with superoxide (O2·^−), published” value [4] of the same compound?
Answer: 3.8e+08 M⁻¹ s⁻¹

Question: What about the “Rate constant, reaction with hydrogen peroxide (H2O2), published” value [5] of the same compound?
Answer: 1.4 × 10^2

Question: And the “Rate constant, reaction with peroxynitrite (ONOO^−), published” value [6]?
Answer: 3.7 × 10^5 (14) M^−1 s^−1

Question: What about the “Ka, binding of nitric oxide (·NO), published” value [7] of the same compound?
Answer: Ka: 1.5 × 10^8 (51) M^−1
